A short description of data set [1]: Metabolic stability screen in mouse liver microsomes. As to conditions: substrate 10 µM, microsomal protein 0.1- 0.5 mg/ml, 1mM NADPH, pH 7.4, 37°C, 30 min incubation, LC/MS, read-out: Mouse Liver Microsomal Turnover. It counts as in vitro ADME. Here is the method: (§1) Metabolic stability screen: each substrate (10 µM) was incubated with microsomal protein (0.1- 0.5 mg/ml) in 50mM potassium phosphate buffer (pH 7.4) in 48-Well plate. The enzyme reaction was initiated by the addition of 1mM NADPH, then incubated at 37°C in a Forma Scientific incubator (Marietta, OH, USA) with gentle shaking. The reactions were quenched by the addition of 800 µl of ACN/MeOH (1:1, v/v), containing 0.5 µM of internal standard (IS), after 30 min incubation. Samples were then filtered by using Captiva 96-Well Filtration (Varian, Lake Forest, CA, USA) and analyzed by LC/MS (mass spectrometry). Liver microsomal incubations were conducted in duplicate.
(§2) The parent remaining in the incubation mixture was determined by LC/MS. […] A Luna C8(2) (50 x 2.0 mm, particle size 3 µm, Phenomenex, Torrance, CA, USA) was used to quantify each compound at ambient temperature. […]
(§3) The peak area ratios (each substrate over IS) at each incubation time were expressed as the percentage of the ratios (each substrate over IS) of the control samples (0 min incubation). The parent remaining in the incubation mixture was expressed as the percentage of the values at 0 min incubation. The percentage turnover is calculated using the following equation (%turnover =[…] - %parent remaining) and is recorded as the percentage turnover in the Table 2. […]
A general note: Liver microsomes are vesicles of endoplasmic reticulum, rich in cytochrome P450 enzymes.

Data set [2] is described as follows: Metabolic stability screen in human liver microsomes. It counts as in vitro ADME. As to conditions: substrate 10 µM, microsomal protein 0.1- 0.5 mg/ml, 1mM NADPH, pH 7.4, 37°C, 30 min incubation, LC/MS, read-out: Human Liver Microsomal Turnover. How it is done: as §1, §2, §3

Molecules are shown by their SMILES.

Regarding `CC(C)(Oc1ccc(Cl)cc1)C(=O)NC1C2CC3CC(C2)CC1C3` (centres unmarked) [EE, N-adamantan-2-yl-2-(4-chloro-phenoxy)-2-methyl-propionamide], the metabolised at 0.5 h, 10 µM in data set [1] amounted to 86%; in data set [2], 88%.

These data come from patent EP2269977B1, “Inhibitors of the 11-beta-hydroxysteroid dehydrogenase Type 1 enzyme” (AbbVie Inc., priority 2005, dated 2006).
